Test results: the supplement of paper PMC10307832

Tests used:
Assay in all cases: relative viability (nuclei count vs DMSO), 5 days (fraction); higher = more cells survive
[1] = compound: C=CCNC1=C2C[C@@H](C)C[C@H](OC)[C@H](O)[C@@H](C)/C=C(\C)[C@H](OC(N)=O)[C@@H](OC)/C=C\C=C(/C)C(=O)NC(=CC1=O)C2=O [17-AAG] + CC1(C)CCC(c2ccc(Cl)cc2)=C(CN2CCN(c3ccc(C(=O)NS(=O)(=O)c4ccc(N[C@H](CCN5CCOCC5)CSc5ccccc5)c(S(=O)(=O)C(F)(F)F)c4)cc3)CC2)C1 [Navitoclax] (partner 0.5 µM)
In short: (§1)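 Nuclei were stained with Hoechst during a one-step fixation (final 0.05% Triton X-100, 1% formaldehyde, 1 ug/ml Hoechst) carried out 5 days after dosing, then counted on 4× images. The cells, lung cancer lines in 1536-well plates, had been dosed by pin tool the day after seeding with one drug alone or a fixed anchor-drug dose plus five library-drug doses (not always all listed) in √10 steps. Relative viability is the nuclei count in treated wells divided by that in vehicle wells, and each value is the median of duplicate plates.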

[2] = compound: C=CCNC1=C2C[C@@H](C)C[C@H](OC)[C@H](O)[C@@H](C)/C=C(\C)[C@H](OC(N)=O)[C@@H](OC)/C=C\C=C(/C)C(=O)NC(=CC1=O)C2=O [17-AAG] + C[C@]1(O)C[C@@H](c2nc(-c3ccc4ccc(-c5ccccc5)nc4c3)c3c(N)nccn32)C1 [Linsitinib] (partner 1 µM)
In short: as §1

[3] = compound: C=CCNC1=C2C[C@@H](C)C[C@H](OC)[C@H](O)[C@@H](C)/C=C(\C)[C@H](OC(N)=O)[C@@H](OC)/C=C\C=C(/C)C(=O)NC(=CC1=O)C2=O [17-AAG] + Cc1nc(NC(=O)N2CCC[C@H]2C(N)=O)sc1-c1ccnc(C(C)(C)C(F)(F)F)c1 [Alpelisib] (partner 2 µM)
In short: as §1

[4] = compound: C=CCNC1=C2C[C@@H](C)C[C@H](OC)[C@H](O)[C@@H](C)/C=C(\C)[C@H](OC(N)=O)[C@@H](OC)/C=C\C=C(/C)C(=O)NC(=CC1=O)C2=O [17-AAG] + O=C(CCCCCCC(=O)Nc1ccccc1)NO [Vorinostat] (partner 1 µM)
In short: as §1

Cell Line	relative viability ([1]; first compound 0.00128 µM)	relative viability ([1]; first compound 0.004048 µM)	relative viability ([1]; first compound 0.0128 µM)	relative viability ([1]; first compound 0.04048 µM)	relative viability ([1]; first compound 0.128 µM)	relative viability ([2]; first compound 0.00128 µM)	relative viability ([2]; first compound 0.004048 µM)	relative viability ([2]; first compound 0.0128 µM)	relative viability ([2]; first compound 0.04048 µM)	relative viability ([2]; first compound 0.128 µM)	relative viability ([3]; first compound 0.00128 µM)	relative viability ([3]; first compound 0.004048 µM)	relative viability ([3]; first compound 0.0128 µM)	relative viability ([3]; first compound 0.04048 µM)	relative viability ([3]; first compound 0.128 µM)	relative viability ([4]; first compound 0.00128 µM)	relative viability ([4]; first compound 0.004048 µM)	relative viability ([4]; first compound 0.0128 µM)	relative viability ([4]; first compound 0.04048 µM)	relative viability ([4]; first compound 0.128 µM)
LOU-NH91	0.608	0.525	0.32	0.332	0.297	0.874	0.678	0.587	0.478	0.311	0.66	0.592	0.532	0.446	0.34	0.86	0.735	0.547	0.482	0.336
NCI-H322M	1.15	1.18	1.26	0.573	0.564	1.04	0.938	0.99	0.484	0.334	0.826	0.865	0.796	0.548	0.382	0.987	1.15	0.569	0.383	0.482
RERF-LC-KJ	1.09	0.747	0.712	0.254	0.234	0.857	0.886	0.923	0.881	0.275	0.957	0.829	0.759	0.291	0.277	0.796	0.686	0.475	0.321	0.222
NCI-H1651	1.05	0.882	1.01	0.214	0.148	1.09	1.01	0.975	0.227	0.177	0.972	0.895	0.902	0.27	0.157	0.538	0.536	0.545	0.578	0.492
NCI-H2087	0.96	0.754	0.284	0.202	0.195	0.886	0.797	0.344	0.248	0.197	1.16	0.904	0.308	0.189	0.165	0.996	0.656	0.252	0.116	0.116
